For data set [1], the target named is T1, CYP46A1 (Homo sapiens, UniProt Q9Y6A2). Kind of data set: Competitive displacement of 18F-CHL-2205. The class given is binding.
In the next data set the target is T2, human CYP46A1 (hCYP46A1) (Homo sapiens, UniProt Q9Y6A2).
T2 construct: expressed in transfected cells; host or cells: HEK cells (HEK-CYP46A1)
The data set can be described thus: Cell uptake studies in HEK cells overexpressing hCYP46A1. The class given is cell-based. Here is the method:
Cell uptake studies were conducted with transfected human embryonic kidney (HEK) cells overexpressing human CYP46A1 (hCYP46A1) and respective controls.
Cell uptake assays were conducted using hCYP46A1 enzyme-HEK cell line (HEK-CYP46A1) and HEK control cells were cultured in Dulbecco's modified Eagle's medium (DMEM) supplemented with 10% fetal bovine serum and antibiotics (0.1 mg/ml streptomycin and 100 IU/ml penicillin). Cells were kept under standard conditions at 37° C. and 5% CO2 and subsequently subpassaged using a solution of 0.25% trypsin and 0.02% EDTA. For cell uptake measurements, HEK-CYP46A1 and HEK control cells were seeded into a 24-well plate at a density of 2×10^5 cells per well the day before the experiment. The medium was replaced with fresh DMEM including ^18F-CHL-2205 (ca. 74 kBq per well) and incubated at 37° C. for 15, 30, and 45 min. The supernatant was collected, and the cells were washed twice with cold 1×phosphate-buffered salinc (PBS) and then harvested by adding 200 μl of 1N NaOH followed by additional two times rinsing with 1×PBS. The blocking assay was performed with the HEK-CYP46A1 cells. […] Supernatant and cell suspensions including 1×PBS from each wash step were collected and then measured using a gamma counter, whereas cell uptake was expressed as the percentage of the added dose after decay correction.

Data set [2] has as its target T3, CYP46A1 (Macaca mulatta, UniProt I2CYF7). The data set can be described thus: In vitro autoradiography of NHP brain. The class given is binding, NHPs. On the set-up: from tissue; host or cells: NHP brain sections. The following applies: excess blocker. As to the method: PET imaging experiments were conducted in non-human primates (NHPs). Consistent with observations from rodent data, the signal intensity of tracer binding correlated with high abundancy regions for CYP46A1, including the putamen, caudate, and limbic cortical regions such as superficial layers of temporal, insular, and cingulate cortex, as evidenced by in vitro autoradiograms of the brain.

For data set [3], the target named is T3, CYP46A1. Kind of data set: Target occupancy PET study in rhesus monkeys. In kind it is in vivo. Details: from tissue; host or cells: brain of living rhesus monkeys. The following applies: rhesus monkey; dose of 0.9 μmol/kg intravenous, all regions.
Description: Four rhesus monkeys (4.8 to 9.3 kg) were anesthetized by intramuscular injection of ketamine (10 mg/kg) and then put on the MRI scanning bed in the supine position. Whole-brain images were acquired. For PET, the subjects were initially anesthetized with ketamine (10 mg/kg, intramuscularly), put on the scanning bed, and maintained under anesthesia with 2% isoflurane and 98% oxygen. All rhesus monkeys were supine, and a stereotactic frame was used to fix the position of the head. […] PET/CT and MR images were co-registered. TACs were derived from the respective volumes of interest and were presented as SUVs, which were decay-corrected to the time of radioligand injection. Whole-blood samples were collected from an arterial catheter to measure radioactivity in whole blood and plasma. […]
Then, the mixture was injected into a high-performance liquid chromatography (HPLC) system equipped with a semipreparative IIPLC column and an ultraviolet detector with the wavelength set at 254 nm. […] The HPLC fractions were collected at 30-s intervals for 13 min; each fraction was counted with automatic gamma well counter. […] Tissue volumes of distribution (VT) and non-displaceable binding potential (BPND) values were determined from a two-tissue compartment model, with metabolite-corrected arterial input function.
For data set [4], the target named is T4, CYP46A1 (Mus musculus, UniProt Q9WVK8). Kind of data set: Brain binding in Cyp46A1 knockout versus control mice. On the set-up: from tissue; host or cells: mouse brain (Cyp46A1+/+ controls; 3xTg-AD mice and controls). The source says: A consideration in CNS-targeted PET constitutes the ability of the tracer to selectivity bind to a target protein while lacking interactions with other abundant brain proteins.
T4 sequence (Q9WVK8 whole entry): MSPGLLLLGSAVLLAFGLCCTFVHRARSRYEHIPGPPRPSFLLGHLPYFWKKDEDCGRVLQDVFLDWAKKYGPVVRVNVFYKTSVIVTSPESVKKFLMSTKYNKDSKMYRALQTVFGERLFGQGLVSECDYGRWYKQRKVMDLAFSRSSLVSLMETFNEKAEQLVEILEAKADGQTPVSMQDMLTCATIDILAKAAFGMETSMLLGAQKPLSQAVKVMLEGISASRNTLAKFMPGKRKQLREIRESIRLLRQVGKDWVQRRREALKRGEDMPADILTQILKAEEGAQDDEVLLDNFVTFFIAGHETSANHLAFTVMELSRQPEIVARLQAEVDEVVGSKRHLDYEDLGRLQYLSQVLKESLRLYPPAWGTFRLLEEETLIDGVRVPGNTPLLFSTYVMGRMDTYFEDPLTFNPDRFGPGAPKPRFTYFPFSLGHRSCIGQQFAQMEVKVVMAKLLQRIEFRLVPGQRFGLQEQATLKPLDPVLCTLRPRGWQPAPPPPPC

Data set [5] addresses T4, CYP46A1. Kind of data set: Saturation binding studies with brain homogenates. Details: species or system rodent. Here is the method: Experiments were performed to determine whether a targeted PET imaging probe would allow the quantification of cholesterol metabolism in the living brain, ultimately paving the way for mechanistic studies on brain cholesterol metabolism in humans. […] The tracer distribution matched closely with the Allen Brain Atlas distribution of CYP46A1 expression data in the mouse brain. Quantification of CYP46A1 by Western blot analysis in the same brain regions confirmed that tracer binding patterns were in concert with CYP46A1 expression across all tested brain regions. Saturation binding studies were performed to determine the dissociation constant (KD) of the probe as well as to assess the amount of available CYP46A1 protein (Bmax) in selected brain regions.

Data set [6] concerns major CNS targets, including common G protein-coupled receptors, ion channels, enzymes, and transporters. Kind of data set: Pharmacological screening on major CNS targets. The following applies: testing concentration of 10 μM.
A short description of data set [7]: Incubation with mouse liver microsomes (radiodefluorination). In kind it is in vitro ADME.
A short description of data set [8]: Incubation with rat liver microsomes (radiodefluorination). In kind it is in vitro ADME.
The format of data set [9] is in vitro ADME, VHP. As to the method: (§1) PET imaging studies were conducted by intravenous injection of 18F-CHL-2205 to rats. […] Greater than 99% of the brain signal was attributed to the intact parent tracer. The brain signal was substantially devoid of interference by radiometabolites. By ex vivo studies, greater than 90% of the signal in the brain was specific at 15, 30, and 45 min after injection.

A short description of data set [10]: Incubation with human liver microsomes (radiodefluorination). In kind it is in vitro ADME.
The target in data set [11] is T5, CYP46A1 (Rattus norvegicus, UniProt A0ACM8QFK4).
T5 construct: from tissue; host or cells: brain of living rats
T5 sequence (A0ACM8QFK4 29-500): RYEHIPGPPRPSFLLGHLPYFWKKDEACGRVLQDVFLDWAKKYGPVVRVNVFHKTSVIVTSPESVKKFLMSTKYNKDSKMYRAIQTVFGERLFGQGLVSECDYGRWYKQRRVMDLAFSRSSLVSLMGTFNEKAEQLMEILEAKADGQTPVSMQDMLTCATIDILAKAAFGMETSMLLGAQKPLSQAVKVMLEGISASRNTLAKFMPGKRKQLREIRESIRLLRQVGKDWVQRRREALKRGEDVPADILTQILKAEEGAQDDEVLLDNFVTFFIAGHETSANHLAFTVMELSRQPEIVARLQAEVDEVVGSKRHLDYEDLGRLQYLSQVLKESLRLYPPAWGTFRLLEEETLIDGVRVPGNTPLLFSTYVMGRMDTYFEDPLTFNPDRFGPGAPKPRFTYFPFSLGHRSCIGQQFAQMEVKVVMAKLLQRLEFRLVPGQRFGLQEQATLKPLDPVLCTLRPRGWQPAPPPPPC
The data set can be described thus: PET imaging and ex vivo brain studies after intravenous injection to rats. In kind it is in vivo. As to the method: as §1
(§2) CD1, 3×Tg-AD mice and respective controls (sex: female, age: 9 to 13 months), as well as rats were purchased from established commercial vendors and kept under a 12-hour light/12-hour dark cycle, with ad libitum food and water. Animals were allowed to acclimatize for at least 1 week before the start of the experimental procedures. Mice and rats were anesthetized with isoflurane and scanned in a μPET/computed tomography (CT) scanner for 60 min after tail-vein injection of 18F-CHL-2205. Data were reconstructed in user-defined time frames. Time-activity curves (TACs) were calculated with predefined regions of interest. Results are presented as area under the curve (AUC) from the respective TACs of SUVs, indicating the decay-corrected radioactivity per cubic centimeter, divided by the injected dose per gram of body weight.

A short description of a further data set: Dosimetry experiments. In kind it is in vivo.
Data set [12] concerns the target T1, CYP46A1. The data set can be described thus: Clinical PET study in healthy volunteers. The class given is in vivo. Details: from tissue; host or cells: brain of living healthy volunteers. The conditions noted are these: CYP46A1-rich regions. As to the method: Eight healthy participants underwent a PET scan with 18F-CHL-2205, followed by a magnetic resonance imaging (MRI) scan for anatomical orientation. Because of the physical half-life of fluorine-18 (109.8 min), the tracer was produced on the day of the experiment in a designated hot cell that provided shielding from radiation exposure and was equipped with an automated synthesis module. PET scans were performed for a duration of 90 min, and the data were subsequently reconstructed to allow the assessment of tracer uptake as a surrogate for CYP46A1 abundancy and cholesterol metabolism.
Experiments were performed to determine whether CYP46A1-targeted PET was sensitive to sex differences in brain cholesterol metabolism. […] Conversely, there was no difference in tracer uptake for low-target density regions such as the cerebellum and brainstem. These findings imply that considerable sex differences in brain cholesterol metabolism via CYP46A1 exist in humans.
An open-label clinical study to evaluate the tolerability, safety, and tracer performance characteristics of 18F-CHL-2205 in healthy volunteers (four men and four women, 22 to 31 years of age) was conducted. […] Volumes of distribution were further determined by Logan graphical analysis and were used to calculate binding potentials. […]

Data set [13] has as its target T4, CYP46A1. Kind of data set: PET imaging in 3xTg-AD mice and controls. The class given is in vivo. On the set-up: from tissue; host or cells: mouse brain (Cyp46A1+/+ controls; 3xTg-AD mice and controls). The conditions noted are these: baseline, intravenous administration. Here is the method:
Tracer binding was assessed and validated in the 3xTg-AD mouse model. […] Hippocampal uptake of the CYP46A1 tracer was compared between 3xTg-AD mice and respective controls.
as §2

Where two headings read alike, the source gives them in different places.

T1 sequence (Q9Y6A2 whole entry): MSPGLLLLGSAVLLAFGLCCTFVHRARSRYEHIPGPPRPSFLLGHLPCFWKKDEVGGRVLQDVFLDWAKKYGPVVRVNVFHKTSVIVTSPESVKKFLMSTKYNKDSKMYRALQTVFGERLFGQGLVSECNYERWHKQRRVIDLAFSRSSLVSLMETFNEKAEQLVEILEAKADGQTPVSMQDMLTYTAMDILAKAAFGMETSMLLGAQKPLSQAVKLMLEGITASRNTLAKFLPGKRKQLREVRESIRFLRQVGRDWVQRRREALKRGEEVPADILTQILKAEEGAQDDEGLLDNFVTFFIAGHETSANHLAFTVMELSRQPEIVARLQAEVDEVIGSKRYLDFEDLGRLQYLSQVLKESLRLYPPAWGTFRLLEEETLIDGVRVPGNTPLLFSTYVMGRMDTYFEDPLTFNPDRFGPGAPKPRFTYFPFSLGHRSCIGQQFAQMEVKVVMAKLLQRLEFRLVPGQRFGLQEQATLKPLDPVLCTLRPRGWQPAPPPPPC
T3 sequence (I2CYF7 29-500): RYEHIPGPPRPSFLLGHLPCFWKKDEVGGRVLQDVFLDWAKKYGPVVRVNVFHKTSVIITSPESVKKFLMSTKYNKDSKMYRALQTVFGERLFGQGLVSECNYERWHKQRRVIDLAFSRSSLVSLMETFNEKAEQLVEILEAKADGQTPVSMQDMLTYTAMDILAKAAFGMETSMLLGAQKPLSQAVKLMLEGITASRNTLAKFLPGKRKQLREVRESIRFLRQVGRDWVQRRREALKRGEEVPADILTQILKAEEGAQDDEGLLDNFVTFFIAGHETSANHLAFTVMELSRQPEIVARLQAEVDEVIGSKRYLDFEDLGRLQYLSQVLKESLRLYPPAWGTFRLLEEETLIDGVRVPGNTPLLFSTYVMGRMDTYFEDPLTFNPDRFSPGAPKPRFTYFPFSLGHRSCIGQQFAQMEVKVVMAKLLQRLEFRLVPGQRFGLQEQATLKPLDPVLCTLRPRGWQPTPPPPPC
T2 sequence (Q9Y6A2 whole entry): as the sequence (Q9Y6A2 whole entry) above

With `C[C@@H](c1ncncc1F)[C@](O)(Cn1cncn1)c1ccc(F)cc1F` [voriconazole], at CYP46A1 [1], the “displacement of 18F-CHL-2205” value was “competitive displacement”.

Take `O=C(c1cccnc1-c1ccncc1)N1CCC(O)(Cc2ccccc2)CC1` [soticlestat]: on human CYP46A1 (hCYP46A1) (escalating doses, HEK-CYP46A1 cells, 18F-CHL-2205 tracer), the “tracer signal of the transfected cell population on co-incubation” value was “attenuated in a dose-dependent manner”. Also, the “displacement of 18F-CHL-2205” value at CYP46A1 [1] was “competitive displacement”. Moreover, at CYP46A1 [2], the “autoradiography signal on co-incubation” value is “relative signal reduction”. In addition, the receptor occupancy at 0.9 µmol/kg on CYP46A1 [3] was more than 90%. Besides, the “tracer binding in control brains under blockade” value on CYP46A1 [4] (excess dose, Cyp46A1+/+ brains) is “reduced to the signal observed in Cyp46A1−/− animals”.

For `CN(C(=O)C1CCN(c2cncnc2-c2ccc([18F])cc2)CC1)C1CC1` [18F-CHL-2205, N-cyclopropyl-1-(4-(4-(fluoro-18F)phenyl)pyrimidin-5-yl)-N-methylpiperidine-4-carboxamide], the “Bmax (amount of available CYP46A1 protein)” value at CYP46A1 [5] (cerebellum) worked out at 21.9 fmol/g; at CYP46A1 [5] (striatum) it was 117.3 fmol/g. In [6], the off-target activity result is reported as “no off-target activity”. In addition, the “stability against radio defluorination” value in data set [7], in [8], in [9] and in data set [10] was “stable against radio defluorination” throughout. Further, the “brain signal attributed to the intact parent tracer” value on CYP46A1 [11] (brain) is reported as “Greater than 99%”. Moreover, the “specific signal in the brain” value on CYP46A1 [11] (ex vivo studies, 15, 30, and 45 min after injection) is “greater than 90%”. Moreover, the “brain uptake after systemic administration” value on CYP46A1 [11] (rats, intravenous injection, PET) is recorded as “rapid tracer uptake into the brain”. In “Dosimetry experiments”, this compound came in with an effective dose of 0.012 mSv/MBq. Further, the “cell uptake in transfected cells compared to controls” value on human CYP46A1 (hCYP46A1) (HEK cells overexpressing hCYP46A1 vs HEK controls) was “fivefold increase”. The “SUV15-30 in the caudate and putamen, women versus men” value on CYP46A1 [12] was “higher in women than in men”. Also, on CYP46A1 [4] (Cyp46A1−/− vs Cyp46A1+/+ mice), the “tracer binding in brains of Cyp46A1−/− animals versus control” value is reported as “signal diminished”. The “hippocampal time-activity curves (TACs) in 3xTg-AD mice versus controls” value at CYP46A1 [13] was “consistently higher”.

The record behind these values is patent US20250352676A1, “N-Cyclopropyl-1-(4-(4-(Fluoro-18f)Phenyl)Pyrimidin-5-Yl)-N-Methylpiperidine- 4-Carboxamide and Uses in PET Imaging” (Emory University, priority 2022, published 2025).
